According to article PMC9100673, “Acridine Based N-Acylhydrazone Derivatives as Potential Anticancer Agents: Synthesis, Characterization and ctDNA/HSA Spectroscopic Binding Properties” (Molecules, 2022):

Assays:
[1] = biological target: T1, human serum albumin (HSA) (Homo sapiens, UniProt P02768); assay: Three-dimensional fluorescence spectra of HSA; type: binding; details: HSA:compound 1:1, 4 μM, 25 °C
T1 construct: purchased Sigma (St. Louis, MO, USA)
Excerpt: A useful method for studying drug-HSA interactions is three-dimensional fluorescence spectroscopy, which can offer information about the structural changes to the polypeptide backbone structure and the microenvironment polarity around the Trp and Tyr residues. Peak a (λex = λem) is […], while peak b (2λex = λem) is […]. The change at peak 1 (280/339 nm) reflects a change in the polarity of the microenvironment around the Trp and Tyr residues, and peak 2 (230/336 nm) characterizes the polypeptide backbone structure. […] The fluorescence intensities of both peaks decreased after the addition of derivatives 3a–3d, with a more pronounced decrease observed in the fluorescence intensity of peak 2. […] The changes observed in the 3D spectra correlate with the results of earlier quenching fluorescence experiments. […]
The 3DF spectra of HSA were performed in the absence and presence of compounds 3a–3d using an excitation wavelength range of 200–350 nm and an emission wavelength range of 200–600 nm at room temperature (25 °C). The 3D spectra were recorded for 4 μM of HSA in a 2 mL buffer solution (100 mM NaCl and 10 mM Tris-HCl buffer pH = 7.4) and for the HSA:3a–3d complexes at a concentration ratio 1:1. […]

calf thymus DNA (ctDNA) = assay: UV-Vis absorption titration with ctDNA (Benesi-Hildebrand); type: binding; details: Tris-HCl pH 7.4, room temperature
Excerpt: Changes in absorbance intensity (either hyperchromic or hypochromic) and a shift in the peak position (hypsochromicity or batochromicity) are typical spectral properties closely related to the interaction of a drug with DNA [60, 61]. […] The absorption spectra of compounds 3a–3d in the presence of increasing concentrations of ctDNA show hypochromicity (16–51%) and a slight hypsochromic shift (Δλ = 1–9 nm, 3a–3d), findings which indicate that the acridine derivatives have interacted with DNA (Table 3). […]
The binding constant Kb of compounds 3a–3d was determined using the modified Benesi-Hildebrand Equation (6):(6) A0/A−A0=εB/εB + DNA+εB/εB + DNA × 1/KbDNA, where A0 and A are the absorbances of the acridine derivatives in the absence and presence of ctDNA; εB and εB + DNA are the molar extinction coefficients of the acridine derivatives individually and in the bound complex, respectively; Kb is the binding constant; and [DNA] is the concentration of ctDNA. […]
UV-Vis absorption spectrum of the drug-ctDNA complexes were measured on a Varian Cary 100 Bio UV-Vis Spectrophotometer. The UV-Vis spectra of free compounds 3a–3d and drug-ctDNA complexes were recorded at the wavelength range of 220 to 600 nm. […]

T1 sequence (P02768 25-609): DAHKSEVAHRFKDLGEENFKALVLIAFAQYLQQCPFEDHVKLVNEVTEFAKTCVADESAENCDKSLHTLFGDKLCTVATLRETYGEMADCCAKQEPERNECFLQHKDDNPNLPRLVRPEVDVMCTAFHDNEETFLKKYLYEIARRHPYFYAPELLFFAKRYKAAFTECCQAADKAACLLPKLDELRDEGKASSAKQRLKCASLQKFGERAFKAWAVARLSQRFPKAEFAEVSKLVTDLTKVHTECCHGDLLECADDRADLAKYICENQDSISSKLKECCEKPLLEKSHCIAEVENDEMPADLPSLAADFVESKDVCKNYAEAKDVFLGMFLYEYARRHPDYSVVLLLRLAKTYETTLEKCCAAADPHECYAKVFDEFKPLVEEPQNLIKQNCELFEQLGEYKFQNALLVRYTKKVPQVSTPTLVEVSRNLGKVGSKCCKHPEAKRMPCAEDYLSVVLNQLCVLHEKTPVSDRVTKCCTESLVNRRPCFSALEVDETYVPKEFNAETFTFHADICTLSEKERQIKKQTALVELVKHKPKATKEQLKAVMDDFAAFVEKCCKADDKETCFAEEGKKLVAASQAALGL

| SMILES | blue shift of peak 1 (280/339 nm) [1] [nm] | blue shift of peak 2 (230/336 nm) [1] [nm] | Kb, binding constant with ctDNA (calf thymus DNA (ctDNA)) [M⁻¹] |
| --- | --- | --- | --- |
| O=C(N/N=C/c1cccc2cc3ccccc3nc12)c1ccccc1 [3a, N′-[(E)-(Acridin-4-yl)methylidene]benzohydrazide] | 8 | 10 |  |
| O=C(N/N=C/c1cccc2cc3ccccc3nc12)c1ccc(F)cc1 [3b, N′-[(E)-Acridin-4-ylmethylidene]-4-fluorobenzohydrazide] |  |  | 3180 |
